Test results taken from US9623123B2, “Fluorescent conjugated polymers with a bodipy-based backbone and uses thereof” (Michigan Technological University, priority 2008, dated 2017).

Legend:
[1] = UV-visible absorption and fluorescence spectra, fluorescence quantum yields in solution; assay type: physicochemical
Procedure: ^1H NMR and ^13C NMR spectra were taken on a 400 MHz Varian Unity Inova spectrophotometer instrument. ^1H and ^13C NMR spectra were recorded in CDCl3, chemical shifts (δ) are given in ppm relative to solvent peaks (1H: δ 7.26; 13C: δ 77.3) as internal standard. UV spectra were taken on a Hewlett Packard 8452A Diode Array UV-visible spectrophotometer. Fluorescence spectra were recorded on a Spex Fluorolog 1681 0.22 m steady-state fluorometer. Fluorescence quantum yields of BODIPY dyes and polymers were measured in methylene chloride and DMF, and calculated by using fluorescein excited at 490 nm in 0.1 N NaOH as the reference absolute quantum efficiency (φn=85%). Molecular weights of the polymers were determined by gel permeation chromatography (“GPC”) by using a Waters Associates Model 6000A liquid chromatograph. Three American Polymer Standards Corp. Ultrastyragel columns in series with porosity indices of 10^3, 10^4, and 10^5 Å were used and housed in an oven thermostated at 30° C. Mobile phase was HPLC grade THF which was filtered and degassed by vacuum filtration through a 0.5 μm fluoropore filter prior to use. The polymers were detected by a Waters Model 440 ultraviolet absorbance detector at a wavelength of 254 nm and a Waters Model 2410 refractive index detector. Molecular weights were measured relative to polystyrene standards. An Enraf Nonius CAD-4 X-Ray diffractometer was used in the crystal structure determination. The windows program WinGX was used as the interface for the solution and refinement of the model. The data were first reduced and corrected for absorption using the psi-scans, and then solved using the program SIR2004. The model was refined using SHELXL97.
(§1) ^1H NMR and ^13C NMR spectra were taken on a 400 MHz Varian Unity Inova spectrophotometer instrument. ^1H and ^13C NMR spectra were recorded in CDCl3, and chemical shifts (5) are given in ppm relative to solvent peaks (at 7.24 ppm for ^1H spectra and at 77.3 for ^13C spectra) as internal standard. UV spectra were taken on a Hewlett-Packard 8452A Diode Array UV-visible spectrophotometer. Fluorescence spectra were recorded on a Spex Fluorolog 1681 0.22 m steady-state fluorometer. Fluorescence quantum yields of BODIPY dyes and polymers were measured in methylene chloride and calculated by using fluorescein excited at 490 nm in 0.1 N NaOH as the reference (its quantum efficiency of 85%). Fluorescence lifetimes were measured on a GL-3300 Nitrogen Laser laserstrobe PTI instrument and analyzed using FeliX32 software.
^1H NMR and ^13C NMR spectra were taken on a 400 MHz Varian Unity Inova spectrophotometer instrument. ^1H and ^13C NMR spectra were recorded in CDCl3, chemical shifts (δ) are given in ppm relative to solvent peaks (^1H: δ 7.26; ^13C: δ 77.3) as internal standard. UV spectra were taken on a Hewlett Packard 8452A Diode Array UV-visible spectrophotometer. Fluorescence spectra were recorded on a Spex Fluorolog 1681 0.22 m steady-state fluorometer. Fluorescence quantum yields of BODIPY dyes and polymers were measured in methylene chloride and DMF, and calculated by using fluorescein excited at 490 nm in 0.1 N NaOH as the reference quantum efficiency (φn=85%).^30,31 Molecular weights of the polymers were determined by gel permeation chromatography (GPC) by using a Waters Associates Model 6000A liquid chromatograph. Three American Polymer Standards Corp. Ultrastyragel columns in series with porosity indices of 10^3, 10^4, and 10^5 Å were used and housed in an oven thermostated at 30° C. Mobile phase was HPLC grade THF which was filtered and degassed by vacuum filtration through a 0.5 μm fluoropore filter prior to use. The polymers were detected by a Waters Model 440 ultraviolet absorbance detector at a wavelength of 254 nm and a Waters Model 2410 refractive index detector. Molecular weights were measured relative to polystyrene standards. […]

[2] = Fluorescence lifetime measurement; assay type: physicochemical
Procedure: as §1
^1H NMR and ^13C NMR spectra were taken on a 400 MHz Varian Unity Inova spectrophotometer instrument. ^1H and ^13C NMR spectra were recorded in CDCl3, and chemical shifts (δ) are given in ppm relative to solvent peaks (^1H, δ 7.26; ^13C, δ 77.3) as internal standard. UV spectra were taken on a Hewlett-Packard 8452A Diode Array UV-visible spectrophotometer. Fluorescence spectra were recorded on a Spex Fluorolog 1681 0.22 m steady-state fluorometer. Fluorescence quantum yields of BODIPY dyes and polymers were measured in methylene chloride and calculated by using fluorescein exCIted at 490 nm in 0.1 N NaOH as the reference (quantum effiCIency, cPn=85%). Fluorescence lifetimes were measured on a 010-3300 Nitrogen Laser laserstrobe PTI instrument and analyzed using FeliX32 software. Molecular weights of the polymers were determined by gel permeation chromatography (OPC) by using a Waters AssoCIates model 6000A liquid chromatograph. Three American Polymer Standards Corp. ultrastyragel columns in series with porosity indices of 103, 104, and 105 A were used and housed in an oven thermostatted at 30° C. The mobile phase was HPLC grade THF which was filtered and degassed by vacuum filtration through a 0.5, urn fluoropore filter prior to use. The polymers were detected by a Waters Model 440 ultraviolet absorbance detector at a wavelength of 254 nm and a Waters Model 2410 refractive index detector. Molecular weights were determined relative to polystyrene standards.

[3] = methylene chloride solution (Table 9, Example 13)
[4] = methylene chloride solution (Table 10, Example 14)
[5] = methylene chloride solution, fluorescein standard (Table 10, Example 14)
[6] = CH2Cl2 solution (Table 2, Example 2)
[7] = CH2Cl2 solution, fluorescein reference (Example 2)
[8] = DMF solution (Table 3, Example 2)
[9] = DMF solution, fluorescein reference (Example 2)
[10] = methylene chloride solution, fluorescein standard (Table 9, Example 13)

| SMILES | Absorption maxima [1, 3] | Emission maxima [1, 3] | Stokes shift [1, 3] | Absorption maxima [1, 4] | Emission maxima [1, 4] | Quantum yield [1, 5] | Fluorescence lifetime [2, 3] | Fluorescence lifetime [2, 4] | Absorption maxima [1, 6] | Emission maxima [1, 6] | Quantum yield [1, 7] | Absorption maxima [1, 8] | Emission maxima [1, 8] | Quantum yield [1, 9] | Quantum yield [1, 10] |
| --- | --- | --- | --- | --- | --- | --- | --- | --- | --- | --- | --- | --- | --- | --- | --- |
| COc1cc(C2=C3C(C)=CC(C)=[N+]3[B-](F)(F)n3c(C)cc(C)c32)cc(OC)c1OC [Compound 9, 4,4-Difluoro-8-(3,4,5-trimethoxyphenyl)-1,3,5,7-tetramethyl-4-bora-3a,4a-diaza-s-indacene] | – | – | – | – | – | – | – | – | 502 nm | 511 nm | 71.5% | 501 nm | 511 nm | 55.3% | – |
| COc1cc(C2=C3C(C)=C(I)C(C)=[N+]3[B-](F)(F)n3c(C)c(I)c(C)c32)cc(OC)c1OC [Compound 10, 4,4-Difluoro-8-(3,4,5-trimethoxyphenyl)-2,6-diiodo-1,3,5,7-tetramethyl-4-bora-3a,4a-diaza-s-indacene] | – | – | – | – | – | – | – | – | 535 nm | 549 nm | 7.52% | 534 nm | 551 nm | 3.4% | – |
| CCCCCCCCCCCCOc1cc(C2=C3C(C)=C(I)C(C)=[N+]3[B-](F)(F)n3c(C)c(I)c(C)c32)cc(OCCCCCCCCCCCC)c1OCCCCCCCCCCCC [Compound 4c] | 535 nm | 550 nm | 15 nm | – | – | – | 0.19 ns | – | – | – | – | – | – | – | 2.3% |
| CCCCCCCCCCCCOc1ccc(C2=C3C(C)=CC(C)=[N+]3[B-](F)(F)n3c(C)cc(C)c32)cc1OCCCCCCCCCCCC [Compound 3b] | 502 nm | 510 nm | 8 nm | 502 nm | 511 nm | 81% | 4.1 ns | 4.1 ns | – | – | – | – | – | – | – |
| CC1=CC(C)=[N+]2C1=C(c1c(C)cccc1C)c1c(C)cc(C)n1[B-]2(F)F [Compound 18, 4,4-Difluoro-8-(2,6-dimethylphenyl)-1,3,5,7-tetramethyl-4-bora-3a,4a-diaza-s-indacene] | – | – | – | – | – | – | – | – | 501 nm | 510 nm | 86.7% | 502 nm | 510 nm | 73.8% | – |
| CCCCCCCCCCCCOc1cc(C2=C3C(C)=CC(C)=[N+]3[B-](F)(F)n3c(C)cc(C)c32)cc(OCCCCCCCCCCCC)c1OCCCCCCCCCCCC [Compound 3c] | 503 nm | 511 nm | 9 nm | – | – | – | 3.2 ns | – | – | – | – | – | – | – | – |
| CCCCCCCCCCCCOc1ccc(C2=C3C(C)=C(I)C(C)=[N+]3[B-](F)(F)n3c(C)c(I)c(C)c32)cc1OCCCCCCCCCCCC [Compound 4b] | 534 nm | 549 nm | 15 nm | 534 nm | 549 nm | 5.8% | 0.15 ns | 0.08 ns | – | – | – | – | – | – | 2.7% |
| COc1ccc(C2=C3C(C)=C(I)C(C)=[N+]3[B-](F)(F)n3c(C)c(I)c(C)c32)cc1 [Compound 15, 4,4-Difluoro-8-(4-methoxyphenyl)-2,6-diiodo-1,3,5,7-tetramethyl-4-bora-3a, 4a-diaza-s-indacene] | – | – | – | – | – | – | – | – | 533 nm | 548 nm | 5.72% | 533 nm | 551 nm | 4.9% | – |
| COc1ccc(C2=C3C(C)=CC(C)=[N+]3[B-](F)(F)n3c(C)cc(C)c32)cc1 [Compound 14, 4,4-Difluoro-8-(4-methoxyphenyl)-1,3,5,7-tetramethyl-4-bora-3a,4a-diaza-s-indacene] | – | – | – | – | – | – | – | – | 500 nm | 510 nm | 80.1% | 500 nm | 510 nm | 71.6% | – |
| CC1=C(I)C(C)=[N+]2C1=C(c1c(C)cccc1C)c1c(C)c(I)c(C)n1[B-]2(F)F [Compound 19, 4,4-Difluoro-8-(2,6-dimethylphenyl)-2,6-diiodo-1,3,5,7-tetramethyl-4-bora-3a,4a-diaza-s-indacene] | – | – | – | – | – | – | – | – | 535 nm | 549 nm | 8.64% | 536 nm | 552 nm | 4.4% | – |

The next lines start with the values.

| Absorption maxima [1, 3] | Emission maxima [1, 3] | Stokes shift [1, 3] | Absorption maxima [1, 4] | Emission maxima [1, 4] | Quantum yield [1, 5] | Fluorescence lifetime [2, 3] | Fluorescence lifetime [2, 4] | Absorption maxima [1, 6] | Emission maxima [1, 6] | Quantum yield [1, 7] | Absorption maxima [1, 8] | Emission maxima [1, 8] | Quantum yield [1, 9] | Quantum yield [1, 10] | SMILES |
| --- | --- | --- | --- | --- | --- | --- | --- | --- | --- | --- | --- | --- | --- | --- | --- |
| 539 nm | 551 nm | 12 nm | 538 nm | 552 nm | 63% | 3.6 ns | 4.2 ns | – | – | – | – | – | – | – | C#CC1=C(C)C2=C(c3ccc(OCCCCCCCCCCCC)cc3)c3c(C)c(C#C)c(C)n3[B-](F)(F)[N+]2=C1C [Compound 6a] |
| 541 nm | 553 nm | 12 nm | – | – | – | 3.0 ns | – | – | – | – | – | – | – | – | C#CC1=C(C)C2=C(c3cc(OCCCCCCCCCCCC)c(OCCCCCCCCCCCC)c(OCCCCCCCCCCCC)c3)c3c(C)c(C#C)c(C)n3[B-](F)(F)[N+]2=C1C [Compound 6c] |
| 554 nm | 569 nm | 15 nm | 553 nm | 569 nm | 71% | 4.4 ns | 4.5 ns | – | – | – | – | – | – | – | CCCCCCCCCCCCOc1ccc(C2=C3C(C)=C(C#C[Si](C)(C)C)C(C)=[N+]3[B-](F)(F)n3c(C)c(C#C[Si](C)(C)C)c(C)c32)cc1 [Compound 5a] |
| 556 nm | 570 nm | 14 nm | – | – | – | 4.4 ns | – | – | – | – | – | – | – | – | CCCCCCCCCCCCOc1cc(C2=C3C(C)=C(C#C[Si](C)(C)C)C(C)=[N+]3[B-](F)(F)n3c(C)c(C#C[Si](C)(C)C)c(C)c32)cc(OCCCCCCCCCCCC)c1OCCCCCCCCCCCC [Compound 5c] |
| 540 nm | 5.52 nm | 12 nm | 539 nm | 553 nm | 67% | 3.9 ns | 5.9 ns | – | – | – | – | – | – | – | C#CC1=C(C)C2=C(c3ccc(OCCCCCCCCCCCC)c(OCCCCCCCCCCCC)c3)c3c(C)c(C#C)c(C)n3[B-](F)(F)[N+]2=C1C [Compound 6b] |
